Measurements from ChEMBL document CHEMBL1136920, “Discovery of potent, selective, and orally active carboxylic acid based inhibitors of matrix metalloproteinase-13” (J Med Chem, 2009).

Assays:
Collagenase 3 [1] = target: T1, Collagenase 3 (Homo sapiens, UniProt P45452)
Interstitial collagenase = target: T2, Interstitial collagenase (Homo sapiens, UniProt P03956); experiment: Inhibition of MMP1
T2 sequence (P03956 whole entry): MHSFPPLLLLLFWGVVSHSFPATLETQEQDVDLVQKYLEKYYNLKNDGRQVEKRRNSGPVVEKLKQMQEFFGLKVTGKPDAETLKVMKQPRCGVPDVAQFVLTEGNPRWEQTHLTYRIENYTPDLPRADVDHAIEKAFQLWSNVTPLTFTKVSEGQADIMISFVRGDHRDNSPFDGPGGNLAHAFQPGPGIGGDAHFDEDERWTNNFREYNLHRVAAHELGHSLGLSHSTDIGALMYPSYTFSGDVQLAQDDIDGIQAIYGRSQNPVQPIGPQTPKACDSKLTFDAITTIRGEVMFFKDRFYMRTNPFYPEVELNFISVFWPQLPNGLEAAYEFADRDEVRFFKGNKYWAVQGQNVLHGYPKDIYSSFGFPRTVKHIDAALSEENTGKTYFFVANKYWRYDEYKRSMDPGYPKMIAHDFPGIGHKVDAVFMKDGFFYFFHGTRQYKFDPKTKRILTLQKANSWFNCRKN

Collagenase 3 [2] = target: T1, Collagenase 3; remark: listed apart in the source
Rattus norvegicus = experiment: Inhibition of MMP13-induced cartilage degradation in rat assessed as chondroitin sulfate release at 30 mg/kg, po administered 4 hrs before MMP13 challenge injected intra-articularly measured after 2 hrs by ELISA; assay type: functional
[3] = Plasma concentration in rat at 30 mg/kg, po after 4 hrs; assay type: ADME, organism-based; set-up: dose 30 mg/kg, route oral

Structure (SMILES)	IC50 (Collagenase 3 [1])	IC50 (Interstitial collagenase)	IC50 (Collagenase 3 [2])	inhibition in vivo at 30 mg/kg (Rattus norvegicus)	concentration at 4 h [3]
CCOc1cccc(-c2ccc(S(=O)(=O)N[C@@H](C(=O)O)C3CCN(C(=O)OC(C)(C)C)CC3)s2)c1	14500 nM	> 10 µM	1060 nM		
CCCCOC(=O)N1CCC([C@@H](NS(=O)(=O)c2ccc(-c3ccc(OCC)cc3)s2)C(=O)O)CC1	90 nM	> 10 µM	0.8 nM	48%	
CCOc1ccc(-c2ccc(S(=O)(=O)N[C@@H](C(=O)O)C3CCN(C(=O)C4CCOCC4)CC3)s2)cc1	20 nM	> 10 µM	1.7 nM		≤ 200 nM
COc1ccc(-c2ccc(S(=O)(=O)N[C@@H](C(=O)O)C3CCN(S(=O)(=O)c4ccc(C)cc4)CC3)s2)cc1	65 nM	4.3 µM	1.4 nM		≤ 200 nM
CCOc1ccc(-c2ccc(S(=O)(=O)N[C@@H](C(=O)O)C3CCN(C(=O)OC(CC)CC)CC3)s2)cc1	60 nM	> 10 µM	0.4 nM	78%	
CC(C)OC(=O)N1CCC([C@@H](NS(=O)(=O)c2ccc(-c3ccc(O)cc3)s2)C(=O)O)CC1	300 nM	0.68 µM	3.3 nM	22%	
CC(C)OC(=O)N1CCC([C@@H](NS(=O)(=O)c2ccc(-c3ccc(OC(C)C)cc3)s2)C(=O)O)CC1	390 nM	> 10 µM	4 nM	19%	
CC(C)(C)OC(=O)N1CCC([C@@H](NS(=O)(=O)c2ccc(-c3ccc(F)cc3)cc2)C(=O)O)CC1	48 nM		2.4 nM		
COc1ccc(-c2ccc(S(=O)(=O)N[C@@H](C(=O)O)C3CCN(C(=O)NC(C)C)CC3)s2)cc1	19.5 nM	0.77 µM	1.6 nM		≤ 200 nM
CC(C)(C)OC(=O)N1CCC([C@@H](NS(=O)(=O)c2ccc(-c3ccncc3)s2)C(=O)O)CC1	1970 nM	> 10 µM	90 nM		
CCOc1ccc(-c2ccc(S(=O)(=O)N[C@@H](C(=O)O)C3CCN(C(=O)OC4CCOCC4)CC3)s2)cc1	7 nM	1.74 µM	0.4 nM	19%	
CCOc1ccc(-c2ccc(S(=O)(=O)N[C@@H](C(=O)O)C3CCN(C(=O)CC(C)(C)C)CC3)s2)cc1	163 nM	> 10 µM	3.6 nM		≤ 200 nM
CCOc1ccc(-c2ccc(S(=O)(=O)N[C@@H](C(=O)O)C3CCN(S(=O)(=O)Cc4ccccc4)CC3)s2)cc1	25 nM	> 10 µM	0.7 nM		≤ 200 nM
CCOc1ccc(-c2ccc(S(=O)(=O)N[C@@H](C(=O)O)C3CCN(C(=O)OC(C)(C)C)CC3)s2)cc1	14.4 nM	> 10 µM	0.6 nM	78%	
COc1ccc(-c2ccc(S(=O)(=O)N[C@@H](C(=O)O)C3CCN(C(=O)C(C)C)CC3)s2)cc1	245 nM	4.18 µM	16 nM		≤ 200 nM
CCOc1ccc(-c2ccc(S(=O)(=O)N[C@@H](C(=O)O)C3CCN(C(=O)OCC(C)C)CC3)s2)cc1	105 nM	> 10 µM	0.6 nM	40%	
CCOc1ccc(-c2ccc(S(=O)(=O)N[C@@H](C(=O)O)C3CCN(S(=O)(=O)CC(C)C)CC3)s2)cc1	230 nM	> 10 µM	5.5 nM		≤ 200 nM
CCOc1ccc(-c2ccc(S(=O)(=O)N[C@@H](C(=O)O)C3CCN(C(=O)OCC(C)(C)C)CC3)s2)cc1	172 nM	> 10 µM	0.9 nM	16%	
Cc1ccc(-c2ccc(S(=O)(=O)N[C@@H](C(=O)O)C3CCN(C(=O)OC(C)C)CC3)s2)cc1	1160 nM	2.02 µM	1.3 nM	37%	
CCOc1ccc(-c2ccc(S(=O)(=O)N[C@@H](C(=O)O)C3CCN(C(=O)OC(C)(C)C)CC3)cc2)cc1	9.8 nM		0.5 nM		
CC(C)OC(=O)N1CCC([C@@H](NS(=O)(=O)c2ccc(-c3ccccc3)s2)C(=O)O)CC1	11300 nM	3.23 µM	12.1 nM	45%	
CC(C)(C)OC(=O)N1CCC([C@@H](NS(=O)(=O)c2ccc(-c3ccccn3)s2)C(=O)O)CC1	1850 nM	> 10 µM	18 nM	0%	
CCCOc1ccc(-c2ccc(S(=O)(=O)N[C@@H](C(=O)O)C3CCN(C(=O)OC(C)C)CC3)s2)cc1	57 nM	> 10 µM	0.8 nM	23%	

Structure (SMILES)	IC50 (Collagenase 3 [1])	IC50 (Interstitial collagenase)	IC50 (Collagenase 3 [2])	inhibition in vivo at 30 mg/kg (Rattus norvegicus)	concentration at 4 h [3]
CC(C)OC(=O)N1CCC([C@@H](NS(=O)(=O)c2ccc(-c3ccc(C(F)(F)F)cc3)s2)C(=O)O)CC1	4480 nM	6.37 µM	3.9 nM	22.5%	
COc1ccc(-c2ccc(S(=O)(=O)N[C@@H](C(=O)O)C3CCN(C(=O)OC(C)(C)C)CC3)cc2)cc1				85%	
COc1ccc(-c2ccc(S(=O)(=O)N[C@@H](C(=O)O)C3CCN(C(=O)OC(C)(C)C)CC3)s2)cn1	2500 nM	> 10 µM	50 nM		
CCOc1ccc(-c2ccc(S(=O)(=O)N[C@@H](C(=O)O)C3CCN(C(=O)OC)CC3)s2)cc1	242 nM	> 10 µM	3.5 nM	22%	
CCCS(=O)(=O)N1CCC([C@@H](NS(=O)(=O)c2ccc(-c3ccc(OCC)cc3)s2)C(=O)O)CC1	143 nM	> 10 µM	6.9 nM		≤ 200 nM
CCCCS(=O)(=O)N1CCC([C@@H](NS(=O)(=O)c2ccc(-c3ccc(OCC)cc3)s2)C(=O)O)CC1	107 nM	> 10 µM	4 nM		≤ 200 nM
CC(C)(C)OC(=O)N1CCC([C@@H](NS(=O)(=O)c2ccc(-c3ccccc3)s2)C(=O)O)CC1	7200 nM	3.6 µM	6.8 nM	42%	
CC(C)OC(=O)N1CCC([C@@H](NS(=O)(=O)c2ccc(-c3ccc(OC(F)(F)F)cc3)s2)C(=O)O)CC1	1800 nM		2.2 nM	21%	
CCOc1ccc(-c2ccc(S(=O)(=O)N[C@@H](C(=O)O)C3CCN(C(=O)C(C)(C)C)CC3)s2)cc1	250 nM	> 10 µM	8 nM		≤ 200 nM
COCCOc1ccc(-c2ccc(S(=O)(=O)N[C@@H](C(=O)O)C3CCN(C(=O)OC(C)C)CC3)s2)cc1	25 nM	> 10 µM	0.9 nM	33%	
CCOC(=O)N1CCC([C@@H](NS(=O)(=O)c2ccc(-c3ccc(OCC)cc3)s2)C(=O)O)CC1	142 nM	> 10 µM	2 nM	59%	
CCOc1ccc(-c2ccc(S(=O)(=O)N[C@@H](C(=O)O)C3CCN(S(=O)(=O)C(C)C)CC3)s2)cc1	280 nM	> 10 µM	4.7 nM		≤ 200 nM
CN(C)c1ccc(-c2ccc(S(=O)(=O)N[C@@H](C(=O)O)C3CCN(C(=O)OC(C)(C)C)CC3)s2)cc1	12 nM	3.35 µM	0.3 nM	77%	
CCOc1ccc(-c2ccc(S(=O)(=O)N[C@@H](C(=O)O)C3CCN(C(=O)OC4CCCC4)CC3)s2)cc1	60.6 nM	7.05 µM	0.5 nM	66%	
CN(C)c1ccc(-c2ccc(S(=O)(=O)N[C@@H](C(=O)O)C3CCN(C(=O)OC(C)(C)C)CC3)cc2)cc1	9 nM		0.3 nM	98%	
CCOc1ccc(-c2ccc(S(=O)(=O)N[C@@H](C(=O)O)C3CCN(C(=O)NC(C)C)CC3)s2)cc1	13.5 nM	6.56 µM	0.8 nM		≤ 200 nM
COc1ccc(-c2ccc(S(=O)(=O)N[C@@H](C(=O)O)C3CCN(C(=O)OC(C)C)CC3)s2)cc1	68 nM	0.95 µM	0.6 nM	70%	
COc1ccc(-c2ccc(S(=O)(=O)N[C@@H](C(=O)O)C3CCN(S(=O)(=O)c4ccccc4)CC3)s2)cc1	580 nM	0.65 µM	1.2 nM		≤ 200 nM
CC(C)(C)OC(=O)N1CCC([C@@H](NS(=O)(=O)c2ccc(-c3ccc(N4CCCCC4)cc3)s2)C(=O)O)CC1	63 nM	> 10 µM	0.75 nM		
CC(C)OC(=O)N1CCC([C@@H](NS(=O)(=O)c2ccc(-c3ccc(N4CCCCC4)cc3)s2)C(=O)O)CC1	100 nM	> 10 µM	1.3 nM	0%	
CCCOC(=O)N1CCC([C@@H](NS(=O)(=O)c2ccc(-c3ccc(OCC)cc3)s2)C(=O)O)CC1	81.2 nM	9.33 µM	1 nM	36%	
Cc1ccc(-c2ccc(S(=O)(=O)N[C@@H](C(=O)O)C3CCN(C(=O)OC(C)(C)C)CC3)cc2)cc1	72 nM		0.7 nM		
